Measurements reported in PubChem BioAssay (NCI).
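The concentration for 50% growth inhibition is given as GI50. Definition used: TGI = concentration required for complete inhibition of growth.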

Key:
Experiment in all cases: inhibition of tumour cell growth, NCI panel, 384-well format
OVCAR-3 ovarian = system: OVCAR-3 ovarian
MALME-3M melanoma = system: MALME-3M melanoma
EKVX NSCLC = system: EKVX NSCLC
SW-620 colon = system: SW-620 colon
MCF7 breast = system: MCF7 breast
K-562 leukemia = system: K-562 leukemia
NCI-H23 lung = system: NCI-H23 lung
HT29 colon = system: HT29 colon
MDA-MB-435 melanoma = system: MDA-MB-435 melanoma
SK-MEL-5 melanoma = system: SK-MEL-5 melanoma
MOLT-4 leukemia = system: MOLT-4 leukemia
NCI-H226 lung = system: NCI-H226 lung
HCT-116 colon = system: HCT-116 colon
OVCAR-5 ovarian = system: OVCAR-5 ovarian
SK-MEL-2 melanoma = system: SK-MEL-2 melanoma
RXF 393 renal = system: RXF 393 renal
786-0 renal = system: 786-0 renal
M14 melanoma = system: M14 melanoma
HL-60(TB) leukemia = system: HL-60(TB) leukemia
SF-539 CNS = system: SF-539 CNS
UACC-257 melanoma = system: UACC-257 melanoma
SNB-19 CNS = system: SNB-19 CNS
SF-295 CNS = system: SF-295 CNS
UACC-62 melanoma = system: UACC-62 melanoma
A498 renal = system: A498 renal
NCI/ADR-RES ovarian = system: NCI/ADR-RES ovarian
T-47D breast = system: T-47D breast
NCI-H322M lung = system: NCI-H322M lung
SK-OV-3 ovarian = system: SK-OV-3 ovarian
HS 578T breast = system: HS 578T breast
KM12 colon = system: KM12 colon
DU-145 prostate = system: DU-145 prostate
OVCAR-8 ovarian = system: OVCAR-8 ovarian
NCI-H522 lung = system: NCI-H522 lung
NCI-H460 NSCLC = system: NCI-H460 NSCLC
CAKI-1 renal = system: CAKI-1 renal
SF-268 CNS = system: SF-268 CNS
SN12C renal = system: SN12C renal
HOP-62 NSCLC = system: HOP-62 NSCLC
HOP-92 NSCLC = system: HOP-92 NSCLC
ACHN renal = system: ACHN renal
MDA-MB-468 breast = system: MDA-MB-468 breast
SK-MEL-28 melanoma = system: SK-MEL-28 melanoma
BT-549 breast = system: BT-549 breast
UO-31 renal = system: UO-31 renal
PC-3 prostate = system: PC-3 prostate
LOX IMVI melanoma = system: LOX IMVI melanoma

NC(=O)[C@@H](CC1CC1)[C@@H](CCC(F)(F)F)C(=O)N[C@H]1N=C(c2ccccc2)c2cccc(F)c2NC1=O
GI50 (OVCAR-3 ovarian): 14.4 µM | TGI (OVCAR-3 ovarian): 29 µM | GI50 (MALME-3M melanoma): 14.8 µM | TGI (MALME-3M melanoma): 28.2 µM | GI50 (EKVX NSCLC): 7.61 µM | TGI (EKVX NSCLC): 32 µM | GI50 (SW-620 colon): 17.7 µM | TGI (SW-620 colon): 35.1 µM | GI50 (MCF7 breast): 14.6 µM | TGI (MCF7 breast): 29.1 µM | GI50 (K-562 leukemia): 7.18 µM | TGI (K-562 leukemia): 62.6 µM | GI50 (NCI-H23 lung): 9.77 µM | TGI (NCI-H23 lung): 30 µM | GI50 (HT29 colon): 32.9 µM | TGI (HT29 colon): 98 µM | GI50 (MDA-MB-435 melanoma): 19.2 µM | TGI (MDA-MB-435 melanoma): 43.7 µM | GI50 (SK-MEL-5 melanoma): 9.41 µM | TGI (SK-MEL-5 melanoma): 24.1 µM | GI50 (MOLT-4 leukemia): 7.38 µM | TGI (MOLT-4 leukemia): 35 µM | GI50 (NCI-H226 lung): 16.5 µM | TGI (NCI-H226 lung): 30.5 µM | GI50 (HCT-116 colon): 10.5 µM | TGI (HCT-116 colon): 26.1 µM | GI50 (OVCAR-5 ovarian): 18.5 µM | TGI (OVCAR-5 ovarian): 47.1 µM | GI50 (SK-MEL-2 melanoma): 19.7 µM | TGI (SK-MEL-2 melanoma): 35.2 µM | GI50 (RXF 393 renal): 7.3 µM | TGI (RXF 393 renal): 22.6 µM | GI50 ([…]-0 renal): 20.3 µM | TGI (786-0 renal): > 67.6 µM | GI50 (M14 melanoma): 18.5 µM | TGI (M14 melanoma): 43.3 µM | GI50 (HL-60(TB) leukemia): 29.7 µM | TGI (HL-60(TB) leukemia): > 100 µM | GI50 (SF-539 CNS): 15.4 µM | TGI (SF-539 CNS): 29 µM | GI50 (UACC-257 melanoma): 5.76 µM | TGI (UACC-257 melanoma): 24.6 µM | GI50 (SNB-19 CNS): 14.7 µM | TGI (SNB-19 CNS): 28.9 µM | GI50 (SF-295 CNS): 17.8 µM | TGI (SF-295 CNS): 37.2 µM | GI50 (UACC-62 melanoma): 14.7 µM | TGI (UACC-62 melanoma): 28.7 µM | GI50 (A498 renal): 15 µM | TGI (A498 renal): 43 µM | GI50 (NCI/ADR-RES ovarian): > 86.4 µM | TGI (NCI/ADR-RES ovarian): > 100 µM | GI50 (T-47D breast): 1.94 µM | TGI (T-47D breast): 17.7 µM | GI50 (NCI-H322M lung): 12.4 µM | TGI (NCI-H322M lung): 40.6 µM | GI50 (SK-OV-3 ovarian): 14.9 µM | TGI (SK-OV-3 ovarian): 28.5 µM | GI50 (HS 578T breast): 11.3 µM | TGI (HS 578T breast): 25.5 µM | GI50 (KM12 colon): > 51.9 µM | TGI (KM12 colon): > 100 µM | GI50 (DU-145 prostate): 23.7 µM | TGI (DU-145 prostate): 66.6 µM | GI50 (OVCAR-8 ovarian): 16 µM | TGI (OVCAR-8 ovarian): 33.5 µM | GI50 (NCI-H522 lung): 15.2 µM | TGI (NCI-H522 lung): 30.5 µM | GI50 (NCI-H460 NSCLC): 11.6 µM | TGI (NCI-H460 NSCLC): > 48.4 µM | GI50 (CAKI-1 renal): 15 µM | TGI (CAKI-1 renal): 36.8 µM | GI50 (SF-268 CNS): 7.01 µM | TGI (SF-268 CNS): 24.3 µM | GI50 (SN12C renal): 16.2 µM | TGI (SN12C renal): 31.2 µM | GI50 (HOP-62 NSCLC): 8.29 µM | TGI (HOP-62 NSCLC): 25 µM | GI50 (HOP-92 NSCLC): 15.5 µM | TGI (HOP-92 NSCLC): 29.6 µM | GI50 (ACHN renal): 20.8 µM | TGI (ACHN renal): > 64.5 µM | TGI (MDA-MB-468 breast): 2.52 µM | GI50 (SK-MEL-28 melanoma): 17.8 µM | TGI (SK-MEL-28 melanoma): 33.2 µM | GI50 (BT-549 breast): 17.8 µM | TGI (BT-549 breast): 35.2 µM | GI50 (UO-31 renal): 17.6 µM | TGI (UO-31 renal): 69.1 µM | GI50 (PC-3 prostate): 17.6 µM | TGI (PC-3 prostate): 34.2 µM | GI50 (LOX IMVI melanoma): 11.7 µM | TGI (LOX IMVI melanoma): 38.4 µM
